Patent US11008549B2, “In vitro model for a tumor microenvironment” (HemoShear, LLC, priority 2013, dated 2021)
pIC50: −log10 of the molar value. Read-outs that look alike come from different tables or passages of the source. Each block holds one compound with its values, some of them ahead of it.

Key:
[1] = tested on: cytochrome p450 1A/1B; assay: Cytochrome p450 1A/1B activity (P450-GLO) in rat hepatocytes after inducer; format: in vitro ADME; conditions: controlled hemodynamics, 3-MC 0.1 μM, 48 hours, day 7
[2] = tested on: A549 cells; conditions: static 2D cultures, cited from earlier work
[3] = tested on: A549 tumor cells; assay: Growth of A549 tumor cells in tri-cultures under tumor capillary hemodynamics (PICOGREEN cell number); format: cell-based; conditions: drug at human Cmax, day seven, tri-culture without exogenous ECM, hemodynamic flow and transport, vs vehicle
[4] = cited from earlier work; for Cmax: steady state plasma Cmax, patients, established therapeutic dosing; for in vivo Cmax level achieved in humans: human
[5] = steady state plasma Cmax at therapeutic doses in mice, read-out: Mouse Cmax, cited from earlier work
[6] = tested on: primary rat hepatocytes; assay: Toxicity of inducer concentration to rat hepatocytes under controlled flow; format: cell-based; conditions: 50 μM, concentration recommended for inducing static cultures
[7] = tested on: cytochrome p450 3A; assay: Cytochrome p450 3A activity (P450-GLO) in rat hepatocytes after inducer; format: in vitro ADME; conditions: controlled hemodynamics, dexamethasone 02.5 μM, 48 hours, day 7
[8] = tested on: primary rat hepatocytes; assay: Gluconeogenesis assay (AMPLEX RED glucose in supernatant); format: cell-based; conditions: 4 hours; for Effect (% Change) on glucose levels: insulin 2 nM or glucagon 100 nM; for decreased glucose levels by: insulin 2 nM
[9] = tested on: primary human hepatocytes; conditions: 72 h
[10] = tested on: primary rat hepatocytes; conditions: 4 h, 1 μM
[11] = tested on: primary human hepatocytes; conditions: 72 h, 1 μM
Description: RT-PCR: Changes in metabolic, toxic, and insulin/glucose/lipid pathway genes were assessed by extracting RNA from hepatocytes from devices run under healthy and steatotic conditions at the end of the culture period (7 or 14 days) and performing RT-PCR on this RNA. The […] were removed from the devices and washed with PBS prior to scraping the cells off the porous membrane. Total RNA was isolated using a […] RNA Mini Kit (a kit for purification of total RNA from cells) and reverse transcribed to cDNA using the ISCRIPT cDNA Synthesis Kit (a cDNA synthesis kit). Primers were designed for the metabolic genes CYP1A1, CYP1A2, CYP3A2, MDR, and GST as well as the insulin/glucose/lipid pathway genes GPAT, ACC1, IRS-2, PPAR-γ, SREBP, ChREBP, LXR, SCD1, CPT1. Primer sequences are shown below in Table 3:
RNA expression was analyzed by real-time RT-PCR using IQ SYBR Green Supermix (a PCR reagent mixture for RT-PCR) and a CFX96 Real-Time System with C1000 Thermal Cycler (an RT-PCR detection system and thermal cycler). RNA data were normalized to endogenous expression of β2-microglobulin and reported as a relative quantity compared to healthy cultures.
Human genes assessed for metabolism and toxicity experiments included CYP1A1. CYP2A6, CYP2B6, CYP2C9, CYP2D6, CYP3A4, CYP3A5, GSTA1, UGT1A1, GSR, SORD, TXNRD1, and APEX1.
Cryopreserved primary human hepatocytes thawed and plated as described above were cultured in the cone-and-plate devices under controlled hemodynamics or were cultured under static conditions (controls) for 7 days before being exposed to different concentrations of chlorpromazine (0.1 μM, 1 μM, and 10 μM) or vehicle control for 72 hours. Live-dead staining was performed on the hepatocytes with ethidium-calcein stain. Hepatocytes were also incubated with MTT reagent for 1 hour to assess viability. RNA was extracted from additional segments and RT-PCR was performed to assess selected toxicity and metabolic genes.

[12] = tested on: rat hepatocytes; assay: In vitro fatty liver model, metabolic gene expression (RT-PCR); format: cell-based; conditions: 1.5 μM, high insulin/glucose fatty liver media, controlled hemodynamics, day 7
[13] = tested on: rat hepatocytes; assay: In vitro fatty liver model, total triglycerides; format: cell-based; conditions: 1.5 μM, high insulin/glucose fatty liver media, controlled hemodynamics, day 7
[14] = tested on: primary rat hepatocytes; assay: CDFDA/CDF bile canalicular imaging (cholestatic changes); format: cell-based; conditions: controlled hemodynamic conditions, 48 hours
Description: For imaging of the biliary activity at canalicular junctions, sections of the porous membrane of the TRANSWELL were washed with PBS and incubated with media containing 10 μM carboxy-2,7-dichlorofluorescein diacetate (CDFDA) for 10 minutes. Samples were then washed with PBS and placed on glass slide for confocal imaging.
The hepatocytes were washed with PBS and immediately incubated with the substrate 10 uM carboxy-2,7-dichlorofluorescein diacetate (CDFDA). The cells were imaged by confocal microscopy during a 20-min exposure to the nonfluorescent substrate CDFDA to allow for the hydrolysis of the substrate to the highly fluorescent Mrp-2 substrate carboxy-2,7-dichlorofluorescein (CDF) and its active secretion into the bile canalicular structures.

[15] = tested on: primary rat hepatocytes; assay: Gene expression of oxidative stress-related genes, MRP3 and MRP4 in rat hepatocytes; format: cell-based; conditions: controlled hemodynamic conditions, in vivo/clinical plasma Cmax concentrations
[16] = No substrate, controlled hemodynamics
[17] = substrate Glycerol 2 mM, controlled hemodynamics
[18] = substrate Lactate/Pyruvate (20 mM/2 mM), controlled hemodynamics

Compound: Cc1ccc2cc3c(ccc4ccccc43)c3c2c1CC3 [3-MC, 3-Methyl Cholanthrene]
- 1A/1B response (cytochrome p450 activity normalized to ATP) [1]: 133.06

Compound: Cn1cnc2c(F)c(Nc3ccc(Br)cc3Cl)c(C(=O)NOCCO)cc21 [AZD6244/Selumetinib, Selumetinib]
- pIC50 [2]: 5.30
- inhibited A549 growth [3]: 78%
- Cmax [4]: 1400 nM

Compound: N.N.[Cl][Pt][Cl] [Cisplatin, cisplatin]
- pIC50 ([2]; listed as cisplatin): < 5.22
- pIC50 [2]: < 5.22
- inhibited A549 growth [3]: 48%
- Cmax [4]: 3000 nM
- Cmax ([5]; listed as cisplatin): > 10000 nM
- Cmax [5]: > 10000 nM

- 3A response (cytochrome p450 activity normalized to ATP) [7]: 57.53
Compound: C[C@@H]1C[C@H]2[C@@H]3CCC4=CC(=O)C=C[C@]4(C)[C@@]3(F)[C@@H](O)C[C@]2(C)[C@@]1(O)C(=O)CO [Dexamethasone, dexamethasone]
- toxicity in the controlled flow system [6]: toxic

- glucose produced by the hepatocytes increased in the presence of the substrate ([8]; glycerol 2 mM, controlled hemodynamics): 67%
Compound: OCC(O)CO [Glycerol, glycerol]

Compound: NC1(c2ccc(-c3nc4ccn5c(=O)[nH]nc5c4cc3-c3ccccc3)cc2)CCC1 [MK2206]
- pIC50 [2]: 5.52
- inhibited A549 growth [3]: 44%
- Cmax [4]: 160 nM
- Cmax [5]: 540 nM

Compound: N.N.O=C([O-])C1(C(=O)[O-])CCC1.[Pt+2] [carboplatin]
- in vivo Cmax level achieved in humans [4]: 37000 ng/mL

- miRNA 122 released into supernatant, over vehicle controls [10]: 6 fold
- upregulation of APEX nuclease (multifunctional DNA repair enzyme) [11]: 2.8 fold
- upregulation of glutathione reductase (GSR) [11]: 8.3 fold
- upregulation of sorbitol dehydrogenase (SORD) [11]: 6.9 fold
- upregulation of thioredoxin reductase 1 (TXNRD1) [11]: 5.5 fold
Compound: CN(C)CCCN1c2ccccc2Sc2ccc(Cl)cc21 [chlorpromazine]
- toxicity ([9]; 1 μM): 30.3%
- toxicity ([9]; 10 μM): 46.4%
- miRNA 122 levels in the supernatants compared to vehicle controls [10]: did not cause any change in miRNA 122 levels

Compound: C#Cc1cccc(Nc2ncnc3cc(OCCOC)c(OCCOC)cc23)c1 [erlotinib]
- in vivo Cmax level achieved in humans [4]: 1000 ng/mL

- total triglyceride content of hepatocytes [13]: reduced total triglyceride content
Compound: CCc1ccc(CCOc2ccc(CC3SC(=O)NC3=O)cc2)nc1 (centres unmarked) [pioglitazone]
- expression of metabolic genes such as Cyp3A2 [12]: restored the expression of metabolic genes

- changes in bile canalicular pattern ([14]; 40 uM): much more prominent and extensive
Compound: Cc1c(C)c2c(c(C)c1O)CCC(C)(COc1ccc(CC3SC(=O)NC3=O)cc1)O2 (centres unmarked) [troglitazone]
- changes in bile canalicular pattern ([14]; 4 uM): changes in the canalicular pattern with visibly dilated canalicular structures
- gene expression associated with toxic response [15]: upregulation of oxidative stress-related genes and compensatory upregulation of MRP3 and MRP4 genes

Compound: glucagon
- Effect (% Change) on glucose levels [8, 16]: +51%
- increased glucose levels by ([8]; absence of a substrate, glucagon 100 nM): 51%
- Effect (% Change) on glucose levels [8, 17]: +15%
- Effect (% Change) on glucose levels [8, 18]: +80%
- increased glucose levels by further ([8]; substrate glycerol, glucagon 100 nM): 15%
- increased glucose produced by ([8]; substrates lactate and pyruvate, glucagon 100 nM): 80%

Compound: insulin
- Effect (% Change) on glucose levels [8, 16]: −27%
- decreased glucose levels by ([8]; absence of a substrate): 27%
- Effect (% Change) on glucose levels [8, 17]: −38%
- Effect (% Change) on glucose levels [8, 18]: −25%
- decreased glucose levels by ([8]; substrate glycerol): 38%
- decreased glucose levels by ([8]; substrates lactate and pyruvate): 25%
